In patent publication US20260285850A1, “SUBSTITUTED OXAZOLIDINONES AND IMIDAZOLINONES AS HERBICIDES” (FMC CORPORATION, priority 2023, published 2026):

Key:
Format in all cases: in vivo
[1] = tested on: barnyardgrass (Echinochloa crus-galli); test: Test A preemergence soil spray, visual injury rating 0-100; conditions: 10 days, 0 = no effect, 100 = complete control
Outline: (§1)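 Compound in a non-phytotoxic, surfactant-containing solvent is applied either as a directed soil spray before seedlings emerge or onto emerged plants 2-10 cm tall; pots hold a loam-sand blend. Plants grow 10 days under greenhouse conditions and are rated by eye against untreated controls (0 no effect, 100 complete control).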

[2] = tested on: blackgrass (Alopecurus myosuroides); test: as above; conditions: 10 days, 0 = no effect, 100 = complete control
Outline: as §1

[3] = tested on: corn (Zea mays); test: as above; conditions: 10 days, 0 = no effect, 100 = complete control
Outline: as §1

[4] = tested on: green foxtail (Setaria viridis); test: as above; conditions: 10 days, 0 = no effect, 100 = complete control
Outline: as §1

[5] = tested on: kochia (Bassia scoparia); test: as above; conditions: 10 days, 0 = no effect, 100 = complete control
Outline: as §1

[6] = tested on: oat, wild (wild oat, Avena fatua); test: as above; conditions: 10 days, 0 = no effect, 100 = complete control
Outline: as §1

[7] = tested on: palmer (palmer amaranth, palmer pigweed, Amaranthus palmeri); test: as above; conditions: 10 days, 0 = no effect, 100 = complete control
Outline: as §1

[8] = tested on: ryegrass, Italian (italian ryegrass, Lolium multiflorum); test: as above; conditions: 10 days, 0 = no effect, 100 = complete control
Outline: as §1

[9] = tested on: soybean (Glycine max); test: as above; conditions: 10 days, 0 = no effect, 100 = complete control
Outline: as §1

[10] = tested on: wheat (Triticum aestivum); test: as above; conditions: 10 days, 0 = no effect, 100 = complete control
Outline: as §1

[11] = tested on: barnyardgrass (Echinochloa crus-galli); test: Test A postemergence application, visual injury rating 0-100; conditions: Postemergence, 10 days, 0 is no effect, 100 is complete control
Outline: as §1

[12] = tested on: blackgrass (Alopecurus myosuroides); test: as above; conditions: Postemergence, 10 days, 0 is no effect, 100 is complete control
Outline: as §1

[13] = tested on: corn (Zea mays); test: as above; conditions: Postemergence, 10 days, 0 is no effect, 100 is complete control
Outline: as §1

[14] = tested on: galium (catchweed bedstraw, Galium aparine); test: as above; conditions: Postemergence, 10 days, 0 is no effect, 100 is complete control
Outline: as §1

[15] = tested on: green foxtail (Setaria viridis); test: as above; conditions: Postemergence, 10 days, 0 is no effect, 100 is complete control
Outline: as §1

[16] = tested on: horseweed (Erigeron canadensis); test: as above; conditions: Postemergence, 10 days, 0 is no effect, 100 is complete control
Outline: as §1

[17] = tested on: kochia (Bassia scoparia); test: as above; conditions: Postemergence, 10 days, 0 is no effect, 100 is complete control
Outline: as §1

[18] = tested on: oat, wild (wild oat, Avena fatua); test: as above; conditions: Postemergence, 10 days, 0 is no effect, 100 is complete control
Outline: as §1

[19] = tested on: palmer (palmer amaranth, palmer pigweed, Amaranthus palmeri); test: as above; conditions: Postemergence, 10 days, 0 is no effect, 100 is complete control
Outline: as §1

[20] = tested on: ragweed (common ragweed, Ambrosia artemisiifolia); test: as above; conditions: Postemergence, 10 days, 0 is no effect, 100 is complete control
Outline: as §1

[21] = tested on: ryegrass, Italian (italian ryegrass, Lolium multiflorum); test: as above; conditions: Postemergence, 10 days, 0 is no effect, 100 is complete control
Outline: as §1

[22] = tested on: soybean (Glycine max); test: as above; conditions: Postemergence, 10 days, 0 is no effect, 100 is complete control
Outline: as §1

[23] = tested on: wheat (Triticum aestivum); test: as above; conditions: Postemergence, 10 days, 0 is no effect, 100 is complete control
Outline: as §1

[24] = tested on: barnyardgrass (Echinochloa crusgalli); test: Test B flooded paddy test, visual plant response rating 0-100; conditions: 250 g ai/ha, Flood, applied to paddy water, evaluated after 13 days
Outline: (§2)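 Greenhouse, 13 d. Seedlings at 2-leaf stage, pots flooded to 3 cm, compound delivered into floodwater, water level held constant. Evaluated visually relative to controls.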

[25] = tested on: ducksalad (Heteranthera limosa); test: as above; conditions: 250 g ai/ha, Flood, applied to paddy water, evaluated after 13 days
Outline: as §2

[26] = tested on: rice (Oryza sativa); test: as above; conditions: 250 g ai/ha, Flood, applied to paddy water, evaluated after 13 days
Outline: as §2

[27] = tested on: sedge, umbrella (small-flower umbrella sedge, Cyperus difformis); test: as above; conditions: 250 g ai/ha, Flood, applied to paddy water, evaluated after 13 days
Outline: as §2

CCCOC(=O)C1C=CC(NC(=O)C2(C)CN(c3cc(F)cc(F)c3)C(=O)O2)C1 (centres unmarked) [Compound 34]
75: Plant response rating, Ducksalad (0 to 100 scale, 0 is no effect and 100 is complete control) [25] | Plant response rating, Sedge, Umbrella (0 to 100 scale, 0 is no effect and 100 is complete control) [27]
70: Soybean plant response rating (0 to 100 scale) ([9]; 125 g ai/ha) | Kochia plant response rating (0 to 100 scale) ([17]; 125 g ai/ha) | Kochia plant response rating (0 to 100 scale) ([17]; 500 g ai/ha) | Ragweed plant response rating (0 to 100 scale) ([20]; 125 g ai/ha) | Soybean plant response rating (0 to 100 scale) ([22]; 125 g ai/ha) | Wheat plant response rating (0 to 100 scale) ([23]; 125 g ai/ha)
90: Blackgrass plant response rating (0 to 100 scale) ([2]; 125 g ai/ha) | Corn plant response rating (0 to 100 scale) ([3]; 125 g ai/ha) | Kochia plant response rating (0 to 100 scale) ([5]; 125 g ai/ha) | Kochia plant response rating (0 to 100 scale) ([5]; 500 g ai/ha) | Oat, Wild plant response rating (0 to 100 scale) ([6]; 125 g ai/ha) | Oat, Wild plant response rating (0 to 100 scale) ([6]; 500 g ai/ha) | Amaranth, Palmer plant response rating (0 to 100 scale) ([7]; 125 g ai/ha) | Wheat plant response rating (0 to 100 scale) ([10]; 125 g ai/ha) | Blackgrass plant response rating (0 to 100 scale) ([12]; 125 g ai/ha) | Foxtail, Green plant response rating (0 to 100 scale) ([15]; 125 g ai/ha) | Foxtail, Green plant response rating (0 to 100 scale) ([15]; 500 g ai/ha) | Horseweed plant response rating (0 to 100 scale) ([16]; 125 g ai/ha) | Horseweed plant response rating (0 to 100 scale) ([16]; 500 g ai/ha) | Ryegrass, Italian plant response rating (0 to 100 scale) ([21]; 500 g ai/ha) | Plant response rating, Barnyardgrass (0 to 100 scale, 0 is no effect and 100 is complete control) [24]
80: Soybean plant response rating (0 to 100 scale) ([9]; 500 g ai/ha) | Galium plant response rating (0 to 100 scale) ([14]; 125 g ai/ha) | Galium plant response rating (0 to 100 scale) ([14]; 500 g ai/ha) | Amaranth, Palmer / Pigweed, Palmer plant response rating (0 to 100 scale) ([19]; 125 g ai/ha) | Ragweed plant response rating (0 to 100 scale) ([20]; 500 g ai/ha) | Ryegrass, Italian plant response rating (0 to 100 scale) ([21]; 125 g ai/ha) | Soybean plant response rating (0 to 100 scale) ([22]; 500 g ai/ha) | Wheat plant response rating (0 to 100 scale) ([23]; 500 g ai/ha)
10: Plant response rating, Rice (0 to 100 scale, 0 is no effect and 100 is complete control) [26]
100: Barnyardgrass plant response rating (0 to 100 scale) ([1]; 125 g ai/ha) | Barnyardgrass plant response rating (0 to 100 scale) ([1]; 500 g ai/ha) | Blackgrass plant response rating (0 to 100 scale) ([2]; 500 g ai/ha) | Corn plant response rating (0 to 100 scale) ([3]; 500 g ai/ha) | Foxtail, Green plant response rating (0 to 100 scale) ([4]; 125 g ai/ha) | Foxtail, Green plant response rating (0 to 100 scale) ([4]; 500 g ai/ha) | Amaranth, Palmer plant response rating (0 to 100 scale) ([7]; 500 g ai/ha) | Ryegrass, Italian plant response rating (0 to 100 scale) ([8]; 125 g ai/ha) | Ryegrass, Italian plant response rating (0 to 100 scale) ([8]; 500 g ai/ha) | Wheat plant response rating (0 to 100 scale) ([10]; 500 g ai/ha) | Barnyardgrass plant response rating (0 to 100 scale) ([11]; 125 g ai/ha) | Barnyardgrass plant response rating (0 to 100 scale) ([11]; 500 g ai/ha) | Blackgrass plant response rating (0 to 100 scale) ([12]; 500 g ai/ha) | Corn plant response rating (0 to 100 scale) ([13]; 125 g ai/ha) | Corn plant response rating (0 to 100 scale) ([13]; 500 g ai/ha) | Oat, Wild plant response rating (0 to 100 scale) ([18]; 125 g ai/ha) | Oat, Wild plant response rating (0 to 100 scale) ([18]; 500 g ai/ha) | Amaranth, Palmer / Pigweed, Palmer plant response rating (0 to 100 scale) ([19]; 500 g ai/ha)
